Data set [1] can be described thus: tolerated dose / host toxicity in xenograft-bearing mice. Conditions: mouse, in vivo, every 8 hours for 6 days, read-out: tolerated dose (higher doses were toxic). The procedure: […] where 1 represents length; w--width; and h--height. Tumor sizes were monitored 2 times/week until the median volume (V=0.4(a^2 ×b) where a is the smaller of the two perpendicular tumor diameters). As an indication of drug toxicity, animal weights were also recorded at the time of tumor volume measurement. Statistical analyses were performed on mouse tumor size and weight parameters by using the Mann-Whitney test.
As illustrated in Table 1 with MALME-3 human melanoma cells, the rank order effectiveness of three polyamine analogs in inducing SSAT levels both in-vitro and in-vivo were BENSPM>BESPM>BEHSPM, with substantial differences in induction between them. The same three polyamine analogs were analyzed for their effectiveness in inducing a potent antitumor response in-vivo. Mice developing palpable tumors of a similar size were divided into different treatment groups comprising 5 mice per treatment group, and 10 control mice per treatment group. The treatment groups, and treatment regimen. per group, were as follows: BEHSPM: administered every 8 hours for a 6 day period with group 1 receiving 1.5 mg/kg; group 2 receiving 3.0 mg/kg; and group 3 receiving 6.0 mg/kg.
BESPM: administered every 8 hours for a 6 day period with group 1 receiving 10 mg/kg; group 2 receiving 20 mg/kg; and group 3 receiving 40 mg/kg.
BENSPM: administered every 8 hours for a 6 day period with group 1 receiving 20 mg/kg; group 2 receiving 40 mg/kg; and group 3 receiving 80 mg/kg.
Note that the highest drug dosages for each analog approach the maximally tolerated dosage for that particular analog (for example, BEHSPM at 6 mg/kg; BESPM at 20 mg/kg; and BENSPN at 80 mg/kg were tolerated by treated animals, whereas higher doses were toxic). Tumor cells comprising the human xenograft were removed from two animals of each group and assayed for SSAT induction. […]

For data set [2], the system named is ornithine decarboxylase (ODC). To be noted: in-vitro; cited from earlier work.
Data set [3] concerns spermidine/spermine N^1 -acetyltransferase (SSAT). Description: SSAT induction in human tumor xenografts in athymic mice in-vivo. Conditions: for level of induction of SSAT: 40 mg/kg every 8 hours for 5 days, 16 hours after final injection; for Avg. SSAT Activity: measured 24 hours after final treatment (Table 8). The procedure: For the in-vivo treatment, 10^7 cultured MALME-3 melanoma cells were injected subcutaneously into 20 gram female nude athymic mice. After four in-vivo passages, tumor was removed and 40-50 mm^3 fragments were selected for implantation into mice via subcutaneous trocar implantation. Mice developing palpable tumors of a similar size were divided into different treatment groups comprising mice per group. Following treatment of the mice with a dosage approaching the maximally tolerated dose of the respective bis-ethyl spermine analog, the tumor cells comprising the human xenograft were removed and assayed for SSAT induction. […] Also indicated in Table 1, the level of SSAT induction in-vivo by BESPM was less than 20 fold that of BEHSPM, and the level of SSAT induction in-vivo by BENSPM was about 6 fold greater than that of BESPM. Thus, a conclusion from the results depicted in Table 1 is the rank order in effectiveness of the his-ethyl spermine analogs to induce SSAT levels in-vitro correlated well with their effectiveness to induce SSAT levels in-vivo.
In accordance with the above methods for assaying the induction of SSAT levels in tumor cell lines treated in-vitro and xenografts treated in-vivo, the induction pattern also correlates fairly well amongst different clonal lines of a particular tumor type. This can be illustrated with melanoma clonal lines LOX, SH-1, PANUT-3, and MALME-3.
In accordance with the above methods for assaying the induction of SSAT levels in tumor cell lines treated in-vitro and xenografts treated in-vivo, the induction pattern also correlates fairly well amongst carcinomas of solid organs. This can be illustrated with malignant clonal lines A121, A549, and HT29.
Note that the highest drug dosages for each analog approach the maximally tolerated dosage for that particular analog (for example, BEHSPM at 6 mg/kg; BESPM at […]; and BENSPN at 80 mg/kg were tolerated by treated animals, whereas higher doses were toxic). Tumor cells comprising the human xenograft were removed from two animals of each group and assayed for SSAT induction. […] Thus, the antitumor activity for these three analogs correlated with their ability to induce SSAT activity in the same tumor cells growing in-vitro and in-vivo, with the rank order of effectiveness in inducing SSAT levels being: BENSPM>BESPM>BEHSPM (Table 4).
Additional studies were performed using BENSPM treatment of human xenografts to determine if there exists a correlation between antitumor activity and SSAT induction in-vivo. SSAT activity was measured using cell extracts obtained by sonication, in 5 mMN-2 hydroxypiperazine-N^2 -ethanesulfonic acid (pH 7.2) containing 1 mM dithiothreitol, of tumor biopsy from treated mice, and tumor biopsy from control mice. The cytosolic extract resulting from a 1 hour centrifugation at 35,000 rpm in a Spinco 40 rotor was used as the source of the enzyme for the assay of SSAT activity. The cytosolic extract was incubated with 10 μmol HEPES buffer, pH7.8, 0.15 nmol spermidine, and 0.5 nmol [1-^14 C] acetylCoenzyme A, in a final volume of 50 μl, for 5 minutes at 37° C. The reaction was stopped by chilling, the addition of 20 μl of 0.5 M NH2 OH.Cl, and heating in a boiling water bath for 3 minutes. After centrifugation to remove precipitated protein, 50 μl of the reaction was spotted on a disc of P-81 phosphocellulose and counted for radioactivity. Protein concentration was also measured so that enzyme activity was expressed as picomoles of acetylspermine synthesized per minute per milligram of protein.
To illustrate this embodiment, SSAT activity was analyzed in tumor tissue and normal tissue from 2 mice following BENSPM treatment of 5 mice at 40 mg/kg, three times daily, for 6 days (Porter et al., 1993, supra). […]

[4] abbreviates: MALME-3 xenograft, maximally tolerated dose, every 8 hours for 6 days.

Entries after “also recorded” stand apart in the source; their conditions may differ.

Consider `CCNCCCCNCCCCNCCCCNCC` [BEHSPM, N^1,N^14 -bis(ethyl)homospermine], for which the MTD at 144 h in data set [1] was 6 mg/kg. Further, the ODC suppression result in data set [2] is “similarly suppress ornithine and S-adenosyl-methionine decarboxylase levels”. The same compound came in with an SSAT induction in-vivo in data set [3] (setting [4]) of 125 pmol/min/mg.
Consider `CCNCCCNCCCNCCCNCC` [BENSPM, N^1,N^11 -bis(ethyl)norspermine], for which the MTD at 144 h in data set [1] came out at 80 mg/kg. Further, the ODC suppression result in data set [2] is “similarly suppress ornithine and S-adenosyl-methionine decarboxylase levels”. Also, the SSAT induction in-vivo in data set [3] (A121 xenograft, BENSPM 40 mg/kg 3x/day 6 days, 16 hours post-treatment) is listed as 2,905 pmol/min/mg; in data set [3] (A549 xenograft, BENSPM 40 mg/kg 3x/day 6 days, 16 hours post-treatment), 14,295 pmol/min/mg; in data set [3] (HT29 xenograft, BENSPM 40 mg/kg 3x/day 6 days, 16 hours post-treatment) it was 3,535 pmol/min/mg; in data set [3] (LOX xenograft, BENSPM 40 mg/kg 3x/day 6 days, 16 hours post-treatment), 160 (200/115) pmol/min/mg; in data set [3] (MALME-3 xenograft, BENSPM 40 mg/kg 3x/day 6 days, 16 hours post-treatment (Table 2)) it was 13,710 (11,490/15,930) pmol/min/mg; in data set [3] (setting [4]) it was 15,700 pmol/min/mg. The SSAT induction in-vivo in data set [3] (PANUT-3 xenograft, BENSPM 40 mg/kg 3x/day 6 days, 16 hours post-treatment) was 25,575 (23,140/22,010) pmol/min/mg; in data set [3] (SH-1 xenograft, BENSPM 40 mg/kg 3x/day 6 days, 16 hours post-treatment), 7,150 (7,495/6,810) pmol/min/mg. Further, the “SSAT activity” value worked out at 2905 pmol/min/mg in data set [3] (A121 xenograft, measured 24 hours after final treatment (Table 9)); 14295 pmol/min/mg in data set [3] (A549 xenograft, measured 24 hours after final treatment (Table 9)); 3535 pmol/min/mg in data set [3] (HT29 xenograft, measured 24 hours after final treatment (Table 9)); 130 pmol/min/mg in data set [3] (PANUT-3 tumor, 80 mg/kg, 2 wks post-treatment). Further, the results for the “level of induction of SSAT” value in data set [3] (LOX xenograft) and in data set [3] (MALME-3 xenograft) were 160 pmol/mg/min and 24,018 pmol/mg/min, respectively. The “Avg. SSAT Activity” value is 157 pmol/min/mg in data set [3] (LOX xenograft), 13,710 pmol/min/mg in data set [3] (MALME-3M xenograft), 22,750 pmol/min/mg in data set [3] (PANUT-3 xenograft) and 7,150 pmol/min/mg in data set [3] (SH-1 xenograft). Also, in data set [3] (MALME-3 xenograft), the “SSAT induction in-vivo relative to BESPM” value was “about 6 fold”. The “SSAT induction, relative” value in data set [3] (treated in-vitro and in-vivo, compared to two other analogs) is on record as “greatest induction of SSAT”.
With `CCNCCCNCCCCNCCCNCC` [BESPM, N^1,N^12-bis(ethyl)spermine], the MTD at 144 h in data set [1] stood at 20 mg/kg. In addition, in data set [2], the ODC suppression entry is “rapidly suppress ODC and SAMDC; also recorded: similarly suppress ornithine and S-adenosyl-methionine decarboxylase levels”. In data set [3] (MALME-3 xenograft), the “SSAT induction in-vivo relative to BEHSPM” value was “less than 20 fold”.
